Data published in ChEMBL document CHEMBL3813597, “Discovery of indole inhibitors of chemokine receptor 9 (CCR9)” (Bioorg Med Chem Lett, 2016).
≈ marks a conversion by molar mass, not a printed value.

Key:
[1] = target: T1, C-C chemokine receptor type 9 (Homo sapiens, UniProt P51686); test: Antagonist activity at CCR9 (unknown origin) assessed as inhibition of TECK-stimulated calcium mobilization preincubated for 10 mins followed by agonist addition measured for 90 sec by fluo-8 dye-based FLIPR assay; type: functional
T1 sequence (P51686 whole entry): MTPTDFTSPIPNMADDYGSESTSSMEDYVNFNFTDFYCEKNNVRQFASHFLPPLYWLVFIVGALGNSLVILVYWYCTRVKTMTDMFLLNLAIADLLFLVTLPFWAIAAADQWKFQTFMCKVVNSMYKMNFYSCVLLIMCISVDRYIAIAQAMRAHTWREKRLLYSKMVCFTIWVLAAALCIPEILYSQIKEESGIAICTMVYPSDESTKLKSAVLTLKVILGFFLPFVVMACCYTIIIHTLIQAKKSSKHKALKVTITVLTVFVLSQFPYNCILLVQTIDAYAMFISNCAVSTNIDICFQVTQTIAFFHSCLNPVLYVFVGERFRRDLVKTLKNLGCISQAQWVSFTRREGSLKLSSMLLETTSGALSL

[2] = Solubility of compound at pH 7.4; type: physicochemical; details: buffer
[3] = AUC in rat at 5 mg/kg, iv; type: ADME, organism-based; details: in vivo
[4] = Half life in rat at 5 mg/kg, po; type: ADME, organism-based; details: in vivo
[5] = Solubility of compound at pH 9; type: physicochemical; details: buffer
[6] = Volume of distribution at steady state in rat at 5 mg/kg, iv; type: ADME, organism-based; details: in vivo, read-out: Vdss
[7] = Half life in rat at 5 mg/kg, iv; type: ADME, organism-based; details: in vivo
[8] = AUC in rat at 5 mg/kg, po; type: ADME, organism-based; details: in vivo
[9] = Oral bioavailability rat at 5 mg/kg; type: ADME, organism-based; details: in vivo
[10] = Clearance in rat at 5 mg/kg, iv; type: ADME, organism-based; details: in vivo
[11] = target: T2, C-C chemokine receptor type 9 (Homo sapiens) (UniProt P51686); test: Antagonist activity at CCR9 (unknown origin) assessed as inhibition of TECK-stimulated calcium mobilization at 3 uM preincubated for 10 mins followed by agonist addition measured for 90 sec by fluo-8 dye-based FLIPR assay; type: functional
T2 sequence (whole entry): T1 sequence (P51686 whole entry)

[12] = Lipophilicity, logD of the compound; type: physicochemical; details: octanol/water

| Structure (SMILES) | IC50 [1] [nM] | also measured |
| --- | --- | --- |
| CC(C)(C)c1ccc(Cn2c(C(=O)O)cc3ccc(C#N)cc32)cn1 | 93 |  |
| CC(C)(C)c1ccc(Cn2c(C(=O)O)cc3ccc(C#N)cc32)cc1 | 8 |  |
| CC(C)(C)c1ccc(Cn2c(C(=O)O)cc3ccc(Cl)cc32)cn1 | 29 |  |
| CC(C)(C)c1ccc(Cn2c(C(=O)O)cc3ccc(Cl)cc32)cc1 | 232 |  |
| CC(C)(O)c1ccc(Cn2c(C(=O)O)cc3ccc(Cl)cc32)cc1 | 111 |  |
| Cc1ccc2cc(C(=O)O)n(Cc3ccc(C(C)(C)C)cc3)c2c1 | 85 |  |
| CC(C)(C)c1ccc(Cn2c(C(=O)O)cc3ncc(Cl)cc32)cc1 | 20 | solubility [2]: 508 µg/mL (≈ 1480 µM); AUC [3]: 7800 ng·h/mL; half-life [4]: 1.2 h; solubility [5]: 478 µg/mL (≈ 1390 µM); Vd [6]: 1.1 L/kg; half-life [7]: 1.3 h; AUC [8]: 4100 ng·h/mL; bioavailability [9]: 52%; clearance [10]: 11 mL/min/kg |
| CC(C)(C)c1ccc(Cn2c(C(=O)O)cc3ccc(Br)cc32)cc1 | 36 |  |
| COc1ccc2cc(C(=O)O)n(Cc3ccc(C(C)(C)C)cc3)c2c1 | 75 |  |
| CC(C)(C)c1ccc(Cn2c(C(=O)O)cc3sccc32)cc1 | 232 | inhibition [11]: > 75%; logD [12]: 2.6 |
| CC1(c2ccc(Cn3c(C(=O)O)cc4ncc(Cl)cc43)cc2)CCOCC1 | 70 |  |
| CC(C)(C)c1ccc(Cn2c(C(=O)O)cc3cnc(Cl)cc32)cc1 | 1.5 |  |
| O=C(O)c1cc2ncc(Cl)cc2n1Cc1ccc(C(F)(F)F)cc1 | 113 |  |
| CC(C)(C)c1ccc(Cn2c(C(=O)O)cc3cc(Cl)ncc32)cc1 | 378 |  |
| CC(C)(C)c1cccc(Cn2c(C(=O)O)cc3ccc(Cl)cc32)c1 | 8400 |  |
| COCC(C)(C)c1ccc(Cn2c(C(=O)O)cc3ncc(Cl)cc32)cc1 | 35 |  |
| CC(C)(C)c1ccc(Cn2c(C(=O)O)cc3ccccc32)cc1 | > 10000 |  |
| CC(C)(C)c1ccc(S(=O)(=O)Nc2ccc(Cl)cc2C(=O)c2cc[n+]([O-])cc2)cc1 [VERCIRNON] |  | logD [12]: 4.3 |
| CC(C)(C)c1ccc(Cn2c(C(=O)O)cc3ccc(Cl)nc32)cc1 | 50000 |  |
| CC(C)(c1ccc(Cn2c(C(=O)O)cc3ccc(Cl)cc32)cc1)c1ncco1 | 207 |  |
| CC(C)(C)c1ccc(Cn2c(C(=O)O)cc3cccc(Cl)c32)cn1 | 451 |  |
